Data taken from patent US20060276452A1, “Use of azetidinecarboxamide derivatives in therapy” (VERNALIS RESEARCH LIMITED, priority 2003, published 2006).

Legend:
[1] = target: T1, recombinant human CB1 receptors (Homo sapiens, UniProt P21554); test: Binding to recombinant human CB1 receptors ([3H]-SR-141716A displacement, HEK293 membranes); details: [3H]-SR-141716A 1 nM; membranes of HEK293 cells expressing hCB1; Ki from IC50 by Cheng-Prusoff
T1 construct: expressed in transfected cells; host or cells: HEK293 cells
T1 sequence (P21554 whole entry): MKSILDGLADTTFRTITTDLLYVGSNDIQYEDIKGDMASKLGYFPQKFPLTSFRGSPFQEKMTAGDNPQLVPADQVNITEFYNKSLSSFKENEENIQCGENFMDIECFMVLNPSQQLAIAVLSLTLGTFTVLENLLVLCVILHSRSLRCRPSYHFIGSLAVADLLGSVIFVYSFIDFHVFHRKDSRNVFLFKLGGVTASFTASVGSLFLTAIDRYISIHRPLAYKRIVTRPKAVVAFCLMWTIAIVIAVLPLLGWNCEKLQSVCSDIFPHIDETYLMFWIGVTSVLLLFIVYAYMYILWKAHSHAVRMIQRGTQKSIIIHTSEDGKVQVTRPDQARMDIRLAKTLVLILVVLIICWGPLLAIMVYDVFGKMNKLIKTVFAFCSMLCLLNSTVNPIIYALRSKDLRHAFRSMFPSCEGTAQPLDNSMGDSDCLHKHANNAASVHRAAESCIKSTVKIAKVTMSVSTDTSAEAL
Procedure: The binding of compounds of Formula I to recombinant human CB1 receptors was determined in vitro by standard methods, with reference to the procedure described by Rinaldi-Carmona et al. (Rinaldi-Carmona, M., Pialot, F., Congy, C., Redon, E., Bart, F., Bachy, A., Breliere, J. C., Soubre, P., LeFur, G., Life Sci. 1996, 58(15), 1239-1247). Membranes were prepared from HEK293 cells expressing recombinant hCB1 receptors. Binding assays are performed in a total volume of 250 μL, containing [^3H]-SR-141716A (1 nM final concentration), membranes and test compound. Non-specific binding is determined using CP55,940 (10 μM). Serial dilutions are performed starting from test compounds as 10 mM solutions in DMSO. Compounds are tested over the concentration range 10^−10 M to 10^−5 M. Ki values are calculated from IC50 values using the Cheng-Prusoff equation.

melting point [°C] | Ki [1] [µM] | Compound
163 to 165.5 |  | NC(=O)N1CC(OCc2cccc(Cl)c2)C1 [Example 44, 3-((3-chlorophenyl)methoxy)-azetidine-1-carboxamide]
110.5 to 112 |  | CCC(OC1CN(C(N)=O)C1)c1cccc(C(F)(F)F)c1 (stereo not shown) [Example 42]
 | 0.285 | C=CCNC(=O)N1CC(OC(c2ccc(Cl)cc2)c2ccc(Cl)cc2)C1 [Example 6, 3-(Bis(4-chlorophenyl)methoxy)-N-(2-propenyl)azetidine-1-carboxamide]
76 to 78 |  | C[C@@H](O)CNC(=O)N1CC(OCc2ccc(Cl)cc2)C1 [Example 36]
